33 compounds from US20260297070A1, “CYCLIC [COMPOUND LEFT OUT] WRN INHIBITORS” (Nimbus Wadjet, Inc., priority 2023, published 2026) can be followed below.

The structures appear in SMILES notation.

In the assay the target is T1, human Werner helicase (WRN-BV08, Uniprot Q14191, amino acids 517-1235 with L1074F point mutation) (Homo sapiens, UniProt Q14191, L1074F).
T1 construct: Uniprot Q14191, amino acids 517-1235 with L1074F point mutation; TEV-cleavable 8×His (C, cleaved yes); made in house; host or cells: Sf9 insect cells (baculovirus)
T1 sequence (Q14191 with tags, fused parts or gaps L1074F limits assumed): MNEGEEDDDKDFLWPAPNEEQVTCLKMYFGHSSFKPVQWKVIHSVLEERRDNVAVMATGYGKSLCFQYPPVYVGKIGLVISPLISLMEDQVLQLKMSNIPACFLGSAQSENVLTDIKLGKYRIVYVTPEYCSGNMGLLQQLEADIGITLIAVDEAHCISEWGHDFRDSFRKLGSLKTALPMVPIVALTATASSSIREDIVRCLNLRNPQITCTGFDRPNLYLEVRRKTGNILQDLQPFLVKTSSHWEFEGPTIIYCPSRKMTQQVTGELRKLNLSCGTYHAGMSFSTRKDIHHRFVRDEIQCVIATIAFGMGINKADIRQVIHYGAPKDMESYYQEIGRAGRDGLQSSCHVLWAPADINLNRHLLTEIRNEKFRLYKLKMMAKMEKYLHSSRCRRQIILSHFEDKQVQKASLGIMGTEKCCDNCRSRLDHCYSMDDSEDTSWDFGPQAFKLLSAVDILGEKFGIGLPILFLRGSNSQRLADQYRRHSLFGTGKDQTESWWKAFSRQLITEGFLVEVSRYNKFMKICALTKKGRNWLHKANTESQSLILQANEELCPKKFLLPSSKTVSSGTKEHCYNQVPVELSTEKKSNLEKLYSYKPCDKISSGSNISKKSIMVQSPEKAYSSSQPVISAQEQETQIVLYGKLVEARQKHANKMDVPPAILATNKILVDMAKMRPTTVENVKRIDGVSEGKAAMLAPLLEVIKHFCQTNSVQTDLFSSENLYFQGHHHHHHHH
The assay is described as follows: WRN (BV08) ADP-Glo Assay. It is filed as biochemical. To be noted: 0.15 nM WRN, 5 μM ATP, 0.1 nM DNA duplex, 15 min preincubation, 60 min at 25° C., pH 7.5, 1% DMSO; read-out: ADP-Glo_hWRN_IC50. The procedure, abridged:
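Helicase ATPase activity is measured at 25 °C over 60 min using 0.15 nM enzyme, 5 μM ATP and 0.1 nM DNA duplex, final DMSO 1%. ADP production is detected by luminescence, with IC50 derived by curve fitting.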
For the compound `COC(C(=O)N(Cc1ccncc1)C1C=CS(=O)(=O)C1)c1ccc(-c2ccc(F)cc2)cc1` (single isomer, unassigned) [I-476, (2R*)-N-[(3R**)-1,1-dioxo-2,3-dihydro-1lambda6-thiophen-3-yl]-2-{4′-fluoro-[1,1′-biphenyl]-4-yl}-2-methoxy-N-[(pyridin-4-yl)methyl]acetamide], the IC50 was more than 50 µM.

For the compound `O=C(Cc1ccc(-n2cccc2)cc1)N(Cc1ccccc1)C1C=CS(=O)(=O)C1` (single isomer, unassigned) [I-488], the IC50 was more than 50 µM.

Take `O=C(Cc1ccc(-n2cccc2)cc1)N(Cc1ccncc1)C1C=CS(=O)(=O)C1` (single isomer, unassigned) [I-490]: the IC50 was more than 50 µM.

For the compound `O=C(Cc1ccc(-n2cccc2)cc1F)N(Cc1ccncc1)C1C=CS(=O)(=O)C1` (single isomer, unassigned) [I-520], the IC50 was more than 50 µM.

Take `O=C(NC(Cc1c[nH]c2ccccc12)C(=O)N(Cc1ccncc1)C1C=CS(=O)(=O)C1)c1ccc(F)cc1` (single isomer, unassigned) [I-561]: the IC50 is more than 50 µM.

With `COC(C(=O)N(Cc1ccncc1)C1C=CS(=O)(=O)C1)c1ccc(-c2ccc(F)cc2)cc1` (single isomer, unassigned) [I-575, (2R*)-N-[(3R**)-1,1-dioxo-2,3-dihydro-1lambda6-thiophen-3-yl]-2-{4′-fluoro-[1,1′-biphenyl]-4-yl}-2-methoxy-N-[(pyridin-4-yl)methyl]acetamide], the IC50 is more than 50 µM.

Take `COc1cc(CN(C(=O)C(C(=O)N(C)C)c2ccc(-c3ccc(F)c(F)c3)cc2F)C2C=CS(=O)(=O)C2)ccn1` (single isomer, unassigned) [I-577, (2R**)-N-[(3R*)-1,1-dioxo-2,3-dihydro-1lambda6-thiophen-3-yl]-N-[(2-methoxypyridin-4-yl)methyl]-N′,N′-dimethyl-2-{3,3′,4′-trifluoro-[1,1′-biphenyl]-4-yl}propanediamide]: the IC50 was less than 0.5 µM.

With `COC(C(=O)N(Cc1ccnc(C(C)(C)O)c1)C1C=CS(=O)(=O)C1)c1ccc(-c2ccc(F)c(F)c2)cc1F` (single isomer, unassigned) [I-578, (2R*)-N-[(3R**)-1,1-dioxo-2,3-dihydro-1lambda6-thiophen-3-yl]-N-{[2-(2-hydroxypropan-2-yl)pyridin-4-yl]methyl}-2-methoxy-2-{3,3′,4′-trifluoro-[1,1′-biphenyl]-4-yl}acetamide], the IC50 is 10 to 50 µM.

Take `O=C(Cn1cc(-c2ccc(F)cc2)cn1)N(Cc1nc(C2CC2)cs1)C1C=CS(=O)(=O)C1` (single isomer, unassigned) [I-601]: the IC50 is 0.5 to 5 µM.

Take `O=C(Cn1cc(-c2ccc(F)cc2)cn1)N(Cc1nc(C2CC2)cs1)C1C=CS(=O)(=O)C1` (single isomer, unassigned) [I-602]: the IC50 is less than 0.5 µM.

On to `O=C(Cn1cc(-c2ccc(F)c(F)c2)cn1)N(Cc1nc(C2CC2)cs1)C1C=CS(=O)(=O)C1` (single isomer, unassigned) [I-604], for which the IC50 fell in the range of 0.5 to 5 µM.

As to `CC(C)(O)c1cc(CN(C(=O)Cn2ccc(-c3ccc(F)cc3)cc2=O)C2C=CS(=O)(=O)C2)ccn1` (single isomer, unassigned) [I-606], the IC50 was less than 0.5 µM.

Take `Cc1cccn1-c1ccc2c(c1)CC(C(=O)N(Cc1ccnc(C(C)(C)O)c1)[C@@H]1C=CS(=O)(=O)C1)O2` (single isomer, unassigned) [I-607]: the IC50 is less than 0.5 µM.

With `CC(C)(O)c1cc(CN(C(=O)C(OC(F)F)c2ccc(-c3ccc(F)c(F)c3)cc2F)[C@@H]2C=CS(=O)(=O)C2)ccn1` (single isomer, unassigned) [I-632], the IC50 was less than 0.5 µM.

As for `CN(C)C(=O)OC(C(=O)N(Cc1ccnc(C(C)(C)O)c1)[C@@H]1C=CS(=O)(=O)C1)c1ccc(-c2ccc(F)c(F)c2)cc1F` (single isomer, unassigned) [I-636], the IC50 was 10 to 50 µM.

Regarding `CC(C)(O)c1cc(CN(C(=O)Cn2cc(-c3ccc(C(F)(F)F)cc3)cn2)C2C=CS(=O)(=O)C2)ccn1` (single isomer, unassigned) [I-638], the IC50 was less than 0.5 µM.

For `CC(C)(O)c1cc(CN(C(=O)Cn2cc(-c3ccc(C(F)F)cc3)cn2)C2C=CS(=O)(=O)C2)ccn1` (single isomer, unassigned) [I-639], the IC50 is less than 0.5 µM.

For the compound `C=CCOC(C(=O)N(Cc1ccnc(C(C)(C)O)c1)[C@@H]1C=CS(=O)(=O)C1)c1ccc(-c2ccc(F)c(F)c2)cc1F` (single isomer, unassigned) [I-641], the IC50 was less than 0.5 µM.

For the compound `CC(C)(O)c1cc(CN(C(=O)Cc2ccc(OC(F)(F)C(F)(F)F)cc2)C2C=CS(=O)(=O)C2)ccn1` (single isomer, unassigned) [I-661], the IC50 was less than 0.5 µM.

As for `CC(C)(O)c1cc(CN(C(=O)Cc2ccc(C3(C(F)(F)F)CC3)cc2)C2C=CS(=O)(=O)C2)ccn1` (single isomer, unassigned) [I-663], the IC50 lay within 0.5 to 5 µM.

As for `COC(C(=O)N(Cc1ccnc(C(C)(C)O)c1)C1C=CS(=O)(=O)C1)c1ccc(S(F)(F)(F)(F)F)cc1` (single isomer, unassigned) [I-664, (2R*)-N-[(3R**)-1,1-dioxo-2,3-dihydro-1lambda6-thiophen-3-yl]-N-{[2-(2-hydroxypropan-2-yl)pyridin-4-yl]methyl}-2-methoxy-2-[4-(pentafluoro-lambda6-sulfanyl)phenyl]acetamide], the IC50 is less than 0.5 µM.

As to `COC(C(=O)N(Cc1ccnc(C(C)(C)O)c1)C1C=CS(=O)(=O)C1)c1ccc(S(F)(F)(F)(F)F)cc1` (single isomer, unassigned) [I-665, (2R*)-N-[(3R**)-1,1-dioxo-2,3-dihydro-1lambda6-thiophen-3-yl]-N-{[2-(2-hydroxypropan-2-yl)pyridin-4-yl]methyl}-2-methoxy-2-[4-(pentafluoro-lambda6-sulfanyl)phenyl]acetamide], the IC50 is 10 to 50 µM.

For the compound `CC(C)(O)c1cc(CN(C(=O)C(c2ccc(-c3ccc(F)c(F)c3)cc2F)n2cccn2)C2C=CS(=O)(=O)C2)ccn1` (single isomer, unassigned) [I-669, (2R*)-N-[(3R**)-1,1-dioxo-2,3-dihydro-1lambda6-thiophen-3-yl]-N-{[2-(2-hydroxypropan-2-yl)pyridin-4-yl]methyl}-2-(1H-pyrazol-1-yl)-2-{3,3′,4′-trifluoro-[1,1′-biphenyl]-4-yl}acetamide], the IC50 was less than 0.5 µM.

Turning to `CC(C)(O)c1cc(CN(C(=O)C(c2ccc(-c3ccc(F)c(F)c3)cc2F)n2cccn2)C2C=CS(=O)(=O)C2)ccn1` (single isomer, unassigned) [I-670, (2R*)-N-[(3R**)-1,1-dioxo-2,3-dihydro-1lambda6-thiophen-3-yl]-N-{[2-(2-hydroxypropan-2-yl)pyridin-4-yl]methyl}-2-(1H-pyrazol-1-yl)-2-{3,3′,4′-trifluoro-[1,1′-biphenyl]-4-yl}acetamide], the IC50 was 0.5 to 5 µM.

With `COc1cc(CN(C(=O)C(c2ccc(-c3ccc(F)c(F)c3)cc2F)n2cccn2)[C@@H]2C=CS(=O)(=O)C2)ccn1` (single isomer, unassigned) [I-671, (2R*)-N-[(3R)-1,1-dioxo-2,3-dihydro-1lambda6-thiophen-3-yl]-N-[(2-methoxypyridin-4-yl)methyl]-2-(1H-pyrazol-1-yl)-2-{3,3′,4′-trifluoro-[1,1′-biphenyl]-4-yl}acetamide], the IC50 is less than 0.5 µM.

As for `COc1cc(CN(C(=O)C(c2ccc(-c3ccc(F)c(F)c3)cc2F)n2cccn2)[C@@H]2C=CS(=O)(=O)C2)ccn1` (single isomer, unassigned) [I-672, (2R*)-N-[(3R)-1,1-dioxo-2,3-dihydro-1lambda6-thiophen-3-yl]-N-[(2-methoxypyridin-4-yl)methyl]-2-(1H-pyrazol-1-yl)-2-{3,3′,4′-trifluoro-[1,1′-biphenyl]-4-yl}acetamide], the IC50 was in the range of 5 to 10 µM.

For the compound `CC(C)(O)c1cc(CN(C(=O)Cc2ccc(C(F)(F)C(F)(F)F)cc2)C2C=CS(=O)(=O)C2)ccn1` (single isomer, unassigned) [I-673], the IC50 was less than 0.5 µM.

As for `CC(C)(O)c1cc(CN(C(=O)CCc2ccc(S(F)(F)(F)(F)F)cc2)C2C=CS(=O)(=O)C2)ccn1` (single isomer, unassigned) [I-674], the IC50 was in the range of 5 to 10 µM.

In the case of `COCC(C(=O)N(Cc1ccnc(C(C)(C)O)c1)[C@@H]1C=CS(=O)(=O)C1)c1ccc(S(F)(F)(F)(F)F)cc1` (single isomer, unassigned) [I-675], the IC50 fell in the range of 10 to 50 µM.

Regarding `CC(C)(O)c1cc(CN(C(=O)Cn2cc3cc(C(F)(F)F)ccc3n2)C2C=CS(=O)(=O)C2)ccn1` (single isomer, unassigned) [I-676], the IC50 was less than 0.5 µM.

Regarding `CC(C)(O)c1cc(CN(C(=O)C(OC2CC2)c2ccc(-c3ccc(F)c(F)c3)cc2F)[C@@H]2C=CS(=O)(=O)C2)ccn1` (single isomer, unassigned) [I-681], the IC50 was less than 0.5 µM.

Take `CC(C)(O)c1cc(CN(C(=O)C(c2ccc(-c3ccc(F)c(F)c3)cc2F)n2cccn2)[C@@H]2C=CS(=O)(=O)C2)ccn1` (single isomer, unassigned) [I-682]: the IC50 was less than 0.5 µM.

For the compound `COc1cc(CN(C(=O)C(c2ccc(-c3ccc(F)c(F)c3)cc2F)n2cc(OC(F)F)cn2)[C@@H]2C=CS(=O)(=O)C2)ccn1` (single isomer, unassigned) [I-685, (2R*)-2-[4-(difluoromethoxy)-1H-pyrazol-1-yl]-N-[(3R)-1,1-dioxo-2,3-dihydro-1lambda6-thiophen-3-yl]-N-[(2-methoxypyridin-4-yl)methyl]-2-{3,3′,4′-trifluoro-[1,1′-biphenyl]-4-yl}acetamide], the IC50 was less than 0.5 µM.
